Results taken from patent US11382900B2, “Composition for preventing or treating sleep disorders” (AMOREPACIFIC CORPORATION, priority 2017, dated 2022).
Where two headings read alike, the source gives them in different places.

Assays:
[1] = rats, oral dose of 3 mg/kg; cited from earlier work
[2] = oral administration for treatment of dental pain; cited from earlier work
[3] = Change in body temperature after oral administration (nonclinical); type: in vivo, Balb/c mice; settings: for change in body temperature, dose dependence: up to 4 hours, AMG 517 0.03, 0.1, 0.3 mg/kg, compound of Formula 1 3, 10, 30 mg/kg
Description: Meanwhile, when the same drug was orally administered, a concentration-dependent increase in body temperature due to TRPV1 antagonism was observed as expected (see FIGS. 2A and 2B).

TRPV1 = target: T1, TRPV1 (Rattus norvegicus, UniProt O35433); settings: rats; cited from earlier work
T1 construct: host or cells: living rats (endogenous protein)
T1 sequence (O35433 whole entry): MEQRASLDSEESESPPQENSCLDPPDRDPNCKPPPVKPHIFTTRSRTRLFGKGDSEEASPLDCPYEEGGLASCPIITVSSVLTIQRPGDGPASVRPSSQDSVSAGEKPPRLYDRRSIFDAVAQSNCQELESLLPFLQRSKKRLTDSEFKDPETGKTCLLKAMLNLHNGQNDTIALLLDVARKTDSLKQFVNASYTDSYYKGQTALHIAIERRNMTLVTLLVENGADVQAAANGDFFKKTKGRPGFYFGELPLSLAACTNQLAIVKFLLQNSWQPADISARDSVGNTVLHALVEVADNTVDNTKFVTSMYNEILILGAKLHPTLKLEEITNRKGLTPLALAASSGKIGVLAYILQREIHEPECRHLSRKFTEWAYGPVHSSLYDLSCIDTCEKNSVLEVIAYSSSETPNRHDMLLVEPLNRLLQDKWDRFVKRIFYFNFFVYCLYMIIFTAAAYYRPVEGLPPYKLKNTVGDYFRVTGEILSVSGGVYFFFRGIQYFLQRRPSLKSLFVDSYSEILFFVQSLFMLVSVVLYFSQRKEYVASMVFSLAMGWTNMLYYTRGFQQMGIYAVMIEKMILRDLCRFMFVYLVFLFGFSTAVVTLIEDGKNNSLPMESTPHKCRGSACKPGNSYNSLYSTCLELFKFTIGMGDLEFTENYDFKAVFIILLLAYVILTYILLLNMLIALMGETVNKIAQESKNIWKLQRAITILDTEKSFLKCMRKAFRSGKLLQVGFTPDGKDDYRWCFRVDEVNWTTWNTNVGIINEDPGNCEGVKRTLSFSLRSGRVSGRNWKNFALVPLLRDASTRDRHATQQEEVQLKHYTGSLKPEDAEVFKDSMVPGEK

[4] = design: species or system C57BL/6 mice; settings: in vivo; for increase in body temperature: C57BL/6, mouse, 2 h; for concentration dependence of body temperature increase: mouse
Protocol: As described above, AMG 517, a representative reference drug as a TRPV1 antagonist, and the compound of Formula 1 of the present invention were tested for the increase in body temperature during transdermal administration.

Row | change in body temperature at lowest dose ([3]; 0.03 mg/kg) | increase in body temperature [4] [°C] | Compound | increase in body temperature [1] | body temperature raised in human [2] | hyperthermia side effect [2] | change in body temperature, dose dependence [3] | effective concentration to maximize analgesic efficacy (TRPV1) | concentration dependence of body temperature increase [4]
1 | significantly increased body temperature | ~1.59 | CC(=O)Nc1nc2c(Oc3cc(-c4ccc(C(F)(F)F)cc4)ncn3)cccc2s1 [AMG 517] | about 1.3 °C | up to 40 °C | concentration-dependent side effect of hyperthermia | increased body temperature in a dose—dependent manner | less than 0.3 mg/kg | significant concentration-dependent increase in body temperature
2 | – | ~0.84 | CCCc1nc(C(F)(F)F)ccc1/C=C/C(=O)N[C@H](C)c1cc(F)c(NS(C)(=O)=O)c(F)c1 [compound of Formula 1] | – | – | – | increased body temperature in a dose—dependent manner | – | no concentration dependence was observed
